Data published in PubChem BioAssay AID330 (DTP/NCI, 2004).
“And” between values parts separate entries of the source, which are not always exact repeats. Identical values can stand only once. Inconclusive results and toxic doses are left out.

Test system: P388 leukemia ip, CD2F1 mice, survival T/C
Assay: NCI In Vivo Anticancer Drug Screen. Data for tumor model P388 Leukemia (intraperitoneal) in CD2F1 (CDF1) mice
Details: endpoint: median survival time, higher = longer survival
Method in brief: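 Mice carrying the transplanted tumor received test compound or vehicle. Survival was recorded in each group, and the value is the treated-group measurement divided by that of the vehicle-treated control group.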

[1] = dose: 12.5 mg/kg/injection, schedule: Q01DX009 (ip), vehicle: saline
[2] = dose: 25.0 mg/kg/injection, schedule: Q01DX009 (ip), vehicle: saline
[3] = dose: 50.0 mg/kg/injection, schedule: Q01DX009 (ip), vehicle: saline
[4] = dose: 100.0 mg/kg/injection, schedule: Q04DX003 (ip), vehicle: saline
[5] = dose: 200.0 mg/kg/injection, schedule: Q04DX003 (ip), vehicle: saline
[6] = dose: 60.0 mg/kg/injection, schedule: Q01DX005 (ip), vehicle: Klucel (hydroxypropylcellulose) (HPC)
[7] = dose: 120.0 mg/kg/injection, schedule: Q01DX005 (ip), vehicle: Klucel (hydroxypropylcellulose) (HPC)
[8] = dose: 100.0 mg/kg/injection, schedule: Q01DX001 (ip), vehicle: Klucel (hydroxypropylcellulose) (HPC)
[9] = dose: 200.0 mg/kg/injection, schedule: Q01DX001 (ip), vehicle: Klucel (hydroxypropylcellulose) (HPC)
[10] = dose: 50.0 mg/kg/injection, schedule: Q01DX009 (ip), vehicle: saline with Tween-80
[11] = dose: 100.0 mg/kg/injection, schedule: Q01DX009 (ip), vehicle: saline with Tween-80
[12] = dose: 100.0 mg/kg/injection, schedule: Q04DX002 (ip), vehicle: saline with Tween-80
[13] = dose: 200.0 mg/kg/injection, schedule: Q04DX002 (ip), vehicle: saline with Tween-80
[14] = dose: 25.0 mg/kg/injection, schedule: Q01DX009 (ip), vehicle: saline with Tween-80
[15] = dose: 12.5 mg/kg/injection, schedule: Q01DX009 (ip), vehicle: saline with Tween-80
[16] = dose: 50.0 mg/kg/injection, schedule: Q01DX009 (ip), vehicle: Klucel (hydroxypropylcellulose) (HPC)
[17] = dose: 100.0 mg/kg/injection, schedule: Q01DX009 (ip), vehicle: Klucel (hydroxypropylcellulose) (HPC)
[18] = dose: 50.0 mg/kg/injection, schedule: Q01DX005 (ip), vehicle: saline with Tween-80
[19] = dose: 100.0 mg/kg/injection, schedule: Q01DX005 (ip), vehicle: saline with Tween-80

SMILES: CSCCC(N)C(=O)OCN1C(=O)C2C3C=CC(C2C1=O)C1C2C(=O)N(COC(=O)C(N)CCSC)C(=O)C2C31 (stereo not given)
- T/C [1]: 117 % of control
- T/C [2]: 122 % of control and 93 % of control
- T/C [3]: 109 % of control
- T/C (dose: 100.0 mg/kg/injection, schedule: Q01DX009 (ip), vehicle: saline): 171 % of control and 200 % of control

SMILES: Cc1ccc(C2NC(c3ccc(C)cc3)C3CCCC2C3O)cc1 (stereo not given)
- T/C [4]: 100 % of control
- T/C [5]: 97 % of control
- T/C (dose: 400.0 mg/kg/injection, schedule: Q04DX003 (ip), vehicle: saline): 95 % of control

SMILES: CC1=C(C)/C(=C/c2ccccn2)NC1=O
- T/C [6]: 98 % of control
- T/C [7]: 105 % of control
- T/C (dose: 240.0 mg/kg/injection, schedule: Q01DX005 (ip), vehicle: Klucel (hydroxypropylcellulose) (HPC)): 98 % of control

SMILES: O=C(N=C1SC(=NC2CCCCC2)N1C1CCCCC1)c1ccccc1
- T/C [8]: 95 % of control
- T/C [9]: 100 % of control

SMILES: CC(C)C(C#N)(C(=O)O)C(C)C
- T/C [10]: 95 % of control
- T/C [11]: 92 % of control

SMILES: CC(NCCc1ccccc1)C1CCOC1=O (stereo not given)
- T/C (dose: 6.25 mg/kg/injection, schedule: Q01DX009 (ip), vehicle: saline): 98 % of control
- T/C [1]: 97 % of control and 102 % of control
- T/C [2]: 103 % of control and 109 % of control
- T/C [3]: 100 % of control and 97 % of control

SMILES: N=c1c2[nH]cnc2ncn1O
- T/C [6]: 92 % of control
- T/C [7]: 93 % of control

SMILES: O=NN(CCCl)C(=O)Nc1cccc(O)c1
- T/C (dose: 66.0 mg/kg/injection, schedule: Q04DX003 (ip), vehicle: Klucel (hydroxypropylcellulose) (HPC)): 220 % of control
- T/C (dose: 100.0 mg/kg/injection, schedule: Q04DX003 (ip), vehicle: Klucel (hydroxypropylcellulose) (HPC)): 240 % of control

SMILES: CC(=O)c1ccc([N+](=O)[O-])cc1Cl
- T/C [12]: 106 % of control
- T/C [13]: 106 % of control
- T/C (dose: 400.0 mg/kg/injection, schedule: Q04DX002 (ip), vehicle: saline with Tween-80): 103 % of control

SMILES: Cc1ccc(-c2nc3n(c2/C=N/NS(=O)(=O)c2ccc(C)cc2)CCS3)cc1
- T/C [8]: 100 % of control
- T/C [9]: 93 % of control
- T/C (dose: 400.0 mg/kg/injection, schedule: Q01DX001 (ip), vehicle: Klucel (hydroxypropylcellulose) (HPC)): 91 % of control

SMILES: O=C(O)c1nc2cn1/C=C\C=NCC1=CN3C=CC=NC3(C(=O)O)N1C2 (stereo not given)
- T/C [14]: 101 % of control
- T/C [10]: 109 % of control
- T/C [11]: 95 % of control

SMILES: CC(C)NCC(O)COc1ccccc1C1CCCCC1 (stereo not given)
- T/C (dose: 6.25 mg/kg/injection, schedule: Q01DX009 (ip), vehicle: Klucel (hydroxypropylcellulose) (HPC)): 103 % of control
- T/C (dose: 6.25 mg/kg/injection, schedule: Q01DX009 (ip), vehicle: saline with Tween-80): 102 % of control
- T/C (dose: 12.5 mg/kg/injection, schedule: Q01DX009 (ip), vehicle: Klucel (hydroxypropylcellulose) (HPC)): 106 % of control
- T/C [15]: 123 % of control and 94 % of control
- T/C [14]: 102 % of control and 113 % of control
- T/C [16]: 104 % of control
- T/C [10]: 99 % of control and 118 % of control and 96 % of control
- T/C [17]: 98 % of control

SMILES: N=C(N)SCc1c2ccccc2cc2ccccc12
- T/C (dose: 22.0 mg/kg/injection, schedule: Q01DX009 (ip), vehicle: saline with Tween-80): 109 % of control
- T/C (dose: 33.0 mg/kg/injection, schedule: Q01DX009 (ip), vehicle: saline with Tween-80): 109 % of control
- T/C [10]: 109 % of control
- T/C (dose: 75.0 mg/kg/injection, schedule: Q01DX009 (ip), vehicle: saline with Tween-80): 118 % of control
- T/C (dose: 100.0 mg/kg/injection, schedule: Q04DX003 (ip), vehicle: saline with Tween-80): 118 % of control

SMILES: CC1CCC(C(C)C)C(N)C1 (stereo not given)
- T/C (dose: 25.0 mg/kg/injection, schedule: Q04DX002 (ip), vehicle: suspension in saline): 100 % of control
- T/C (dose: 50.0 mg/kg/injection, schedule: Q04DX002 (ip), vehicle: suspension in saline): 93 % of control
- T/C [12]: 89 % of control
- T/C (dose: 100.0 mg/kg/injection, schedule: Q04DX002 (ip), vehicle: suspension in saline): 102 % of control

SMILES: O=S(CF)c1ccccc1 (stereo not given)
- T/C (dose: 75.0 mg/kg/injection, schedule: Q04DX003 (ip), vehicle: saline): 91 % of control
- T/C (dose: 150.0 mg/kg/injection, schedule: Q04DX003 (ip), vehicle: saline): 101 % of control
- T/C (dose: 300.0 mg/kg/injection, schedule: Q04DX003 (ip), vehicle: saline): 107 % of control

SMILES: O=c1c(-c2ccccc2)cc2c(-c3ccccc3)oc(-c3ccccc3)c2cc1-c1ccccc1
- T/C (dose: 50.0 mg/kg/injection, schedule: Q04DX002 (ip), vehicle: saline with Tween-80): 90 % of control
- T/C [12]: 94 % of control
- T/C [13]: 92 % of control

SMILES: CCNCCn1cccc1
- T/C (dose: 50.0 mg/kg/injection, schedule: Q04DX003 (ip), vehicle: saline): 91 % of control
- T/C [4]: 95 % of control
- T/C [5]: 95 % of control

SMILES: C/C(=N\SC(c1ccccc1)(c1ccccc1)c1ccccc1)c1ccccc1
- T/C (dose: 100.0 mg/kg/injection, schedule: Q01DX001 (ip), vehicle: saline with Tween-80): 95 % of control
- T/C (dose: 200.0 mg/kg/injection, schedule: Q01DX001 (ip), vehicle: saline with Tween-80): 88 % of control

SMILES: CCC(C)C(F)C(=O)O (stereo not given)
- T/C [18]: 98 % of control
- T/C [19]: 88 % of control

SMILES: Cc1ccc(NC(=O)c2cc(C)ccc2N)cc1
- T/C [18]: 91 % of control
- T/C [19]: 91 % of control
- T/C (dose: 200.0 mg/kg/injection, schedule: Q01DX005 (ip), vehicle: saline with Tween-80): 101 % of control

SMILES: O=c1c2ccccc2ncn1S(=O)(=O)c1ccc(N(CCCl)CCCl)cc1
- T/C [12]: 110 % of control
- T/C [13]: 118 % of control

SMILES: CN(CCCN(C)CCC1CCCCC1)CCC1CCCCC1
- T/C [15]: 100 % of control
- T/C [14]: 103 % of control
- T/C [10]: 105 % of control

SMILES: COc1ccccc1NC(=O)C1C(=O)C(=O)N(c2ccccc2OC)C1=O (stereo not given)
- T/C [16]: 106 % of control
- T/C [17]: 106 % of control
- T/C (dose: 200.0 mg/kg/injection, schedule: Q01DX009 (ip), vehicle: Klucel (hydroxypropylcellulose) (HPC)): 100 % of control

SMILES: COC(=O)C1=C(C(=O)OC)C2C3CC4C(C13)C42
- T/C (dose: 9.4 mg/kg/injection, schedule: Q01DX009 (none), vehicle: saline): 105 % of control
- T/C (dose: 18.75 mg/kg/injection, schedule: Q01DX009 (none), vehicle: saline): 106 % of control
- T/C (dose: 37.5 mg/kg/injection, schedule: Q01DX009 (none), vehicle: saline): 105 % of control
- T/C (dose: 75.0 mg/kg/injection, schedule: Q01DX009 (none), vehicle: saline): 99 % of control

SMILES: CCCCCCCCCCCCCCSCCCCCCCCCCCCCC
- T/C (dose: 25.0 mg/kg/injection, schedule: Q01DX005 (ip), vehicle: Klucel (hydroxypropylcellulose) (HPC)): 100 % of control
- T/C (dose: 50.0 mg/kg/injection, schedule: Q01DX005 (ip), vehicle: Klucel (hydroxypropylcellulose) (HPC)): 99 % of control
- T/C (dose: 100.0 mg/kg/injection, schedule: Q01DX005 (ip), vehicle: Klucel (hydroxypropylcellulose) (HPC)): 92 % of control
- T/C (dose: 200.0 mg/kg/injection, schedule: Q01DX005 (ip), vehicle: Klucel (hydroxypropylcellulose) (HPC)): 92 % of control
